Source: patent publication US5693617A, “Inhibitors of the 26s proteolytic complex and the 20s proteasome contained therein” (ProScript, Inc., priority 1995, dated 1997)
Non-standard residues stand in square brackets, D forms with d. Residues, ends and D or L forms follow the SMILES beside them. ξ: configuration not given here. *: point of attachment. 1Nal = N[C@@H](Cc1cccc2ccccc12)C(=O)O; 2Nal = N[CH](Cc1ccc2ccccc2c1)C(=O)O; Cha = N[C@@H](CC1CCCCC1)C(=O)O; Ile(3ξ) = CCC(C)[C@H](N)C(=O)O; Nva = CCC[C@H](N)C(=O)O; Cbz = O=C(OCc1ccccc1)*; Boc = CC(C)(C)OC(=O)*; Bn = c1ccc(C*)cc1

What was measured:
[1] = biological target: chymotrypsin-like activity of the proteasome; details: cited from earlier work; for Ki: Vinitsky et al. 1992, slow binding inhibitors
20S proteasome = biological target: T1, 20S proteasome (Oryctolagus cuniculus, UniProt G1T4Q9); experiment: Inhibition of the 20S proteasome peptidase activity (kinetic experiments); type: biochemical, Rabbit; details: Rabbit muscle, SDS-activated, substrate Suc-LLVY-AMC; read-out: Ki 20S
T1 sequence (G1T4Q9 60-263): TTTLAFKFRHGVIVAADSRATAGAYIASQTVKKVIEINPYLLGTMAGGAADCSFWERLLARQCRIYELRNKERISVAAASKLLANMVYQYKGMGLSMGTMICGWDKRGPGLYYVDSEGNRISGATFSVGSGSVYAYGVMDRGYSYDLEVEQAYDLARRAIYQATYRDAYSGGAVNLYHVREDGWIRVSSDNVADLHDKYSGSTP
T1 sequence (G1SU71 1-241 partner): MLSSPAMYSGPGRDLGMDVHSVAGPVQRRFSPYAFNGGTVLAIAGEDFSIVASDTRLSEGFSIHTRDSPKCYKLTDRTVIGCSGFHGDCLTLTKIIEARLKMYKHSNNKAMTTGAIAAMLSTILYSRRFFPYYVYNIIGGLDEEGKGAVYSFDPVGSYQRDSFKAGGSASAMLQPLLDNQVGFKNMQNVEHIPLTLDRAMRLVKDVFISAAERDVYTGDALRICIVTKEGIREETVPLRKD
Source text: Tables I-III summarize results from kinetic experiments that measured the inhibition of the 20S and 26S proteasomes, as well as cathepsin B and calpain, enzymes that may also be involved in muscle protein turnover. In these tables, Ki values are reported, which are dissociation constants for the equilibrium that is established when enzyme and inhibitor interact to form the enzyme:inhibitor complex.
The substances and assay conditions are briefly summarized in the footnotes to Table I. MG 101 and MG 102, also known as Calpain Inhibitor I and II, were purchased from Calbiochem as catalogue products.
(^a) Rabbit muscle. SDSactivated. Substrate: SucLLVYAMC.

PC12 cells = details: Tsubuki et al. 1993; cited from earlier work

| Structure (SMILES) | Ki (20S proteasome) [nM] | other results |
| --- | --- | --- |
| CSCC[C@@H](C=O)NC(=O)[C@H](CC(C)C)NC(=O)[C@H](CC(C)C)NC(C)=O [Ac-LLM-H, N-acetyl-Leu-Leu-methioninal] (Ac-Leu-Leu-Met-aldehyde) | – | Ki [1]: 33000 nM |
| CC(C)C[C@H](NC(=O)OCc1ccccc1)C(=O)N[C@@H](CC(C)C)C(=O)N[C@H](C=O)Cc1ccccc1 [MG 110, Z-Leu-Leu-Phe-H] (Cbz-Leu-Leu-Phe-aldehyde) | – | Ki [1]: 460 nM |
| CC(C)C[C@H](NC(=O)OCc1ccccc1)C(=O)N[C@@H](CC(C)C)C(=O)N[C@H](C=O)CC1CCCCC1 [MG 129] (Cbz-Leu-Leu-[Cha]-aldehyde) | 74 | – |
| CC(C)C[C@H](NC(=O)OCc1ccccc1)C(=O)N[C@@H](CC(C)C)C(=O)N[C@H](C=O)Cc1ccc(O)cc1 [MG 131] (Cbz-Leu-Leu-Tyr-aldehyde) | 7 | – |
| CC(C)C[C@@H](C=O)NC(=O)[C@H](CC(C)C)NC(=O)[C@H](CC(C)C)NC(=O)OCc1ccccc1 [MG 132] (Cbz-Leu-Leu-Leu-aldehyde) | 4 | – |
| CCC(C)[C@@H](C=O)NC(=O)[C@H](CC(C)C)NC(=O)[C@H](CC(C)C)NC(=O)OCc1ccccc1 (stereo partly drawn) [MG 134] (Cbz-Leu-Leu-[Ile(3ξ)]-aldehyde) | 104 | – |
| CCC[C@@H](C=O)NC(=O)[C@H](CC(C)C)NC(=O)[C@H](Cc1cccc2ccccc12)NC(=O)OCc1ccccc1 [MG 142] (Cbz-[1Nal]-Leu-[Nva]-aldehyde) | 0.2 | – |
| CC(C)C[C@H](NC(=O)OCc1ccccc1)C(=O)N[C@@H](CC(C)C)C(=O)N[C@H](C=O)Cc1ccc(OCc2ccccc2)cc1 [MG 153] (Cbz-Leu-Leu-Tyr(Bn)-aldehyde) | 285 | – |
| CC(C)C[C@@H](C=O)NC(=O)[C@H](CC(C)C)NC(=O)[C@H](CC(C)C)NC(=O)OC(C)(C)C [MG 155] (Boc-Leu-Leu-Leu-aldehyde) | 47 | – |
| CC(C)CC(C=O)NC(=O)C(Cc1ccc2ccccc2c1)NC(=O)OCc1ccccc1 (stereo not drawn) [MG 279, Z-Nal-Leu-H] (Cbz-[2Nal]-Leu-aldehyde; configuration not given here) | 24 | – |
| CC(C)C[C@@H](C=O)NC(=O)CNC(=O)CNC(=O)OCc1ccccc1 [Z-Gly-Gly-Leu-H] (Cbz-Gly-Gly-Leu-aldehyde) | – | Inhibition of the chymotrypsin-like activity of the proteasome ([1]; Orlowski 1990): inhibits the chymotrypsin-like activity of the proteasome |
| CC(C)C[C@@H](C=O)NC(=O)[C@H](CC(C)C)NC(=O)[C@H](CC(C)C)NC(=O)OCc1ccccc1 [Z-Leu-Leu-Leu-H, Z-L-Leucine-L-Leucine-L-Leucinal] (Cbz-Leu-Leu-Leu-aldehyde) | – | Optimal concentration for initiating neurite outgrowth (PC12 cells): 30 nM |
| CCOC(=O)C(=O)[C@H](Cc1ccccc1)NC(=O)[C@H](CC(C)C)NC(=O)[C@H](CC(C)C)NC(=O)OCc1ccccc1 [Z-Leu-Leu-Phe-COOEt] | – | Ki [1]: 53000 nM |
